Results as given in ChEMBL document CHEMBL5365500, “Development and Antibacterial Properties of 4-[4-(Anilinomethyl)-3-phenylpyrazol-1-yl]benzoic Acid Derivatives as Fatty Acid Biosynthesis Inhibitors” (J Med Chem, 2023).
Converted amounts (≈) assume the structure as drawn.

Columns and labels:
Format in all cases: functional
Conditions in all cases: time 20-24 hrs
Staphylococcus aureus [1] = assay: Antimicrobial activity against antibiotic-resistant Staphylococcus aureus ATCC BAA-2312 assessed as inhibition of visible growth measured after 20 to 24 hrs incubation by CLSI method
Staphylococcus aureus [2] = assay: Antimicrobial activity against antibiotic-resistant Staphylococcus aureus ATCC 33591 assessed as inhibition of visible growth measured after 20 to 24 hrs incubation by CLSI method
Enterococcus faecalis [3] = assay: Antimicrobial activity against antibiotic-susceptible Enterococcus faecalis ATCC 29212 assessed as inhibition of visible growth measured after 20 to 24 hrs incubation by CLSI method
Enterococcus faecium = assay: Antimicrobial activity against antibiotic-resistant Enterococcus faecium ATCC 700221 assessed as inhibition of visible growth measured after 20 to 24 hrs incubation by CLSI method
Enterococcus faecalis [4] = assay: Antimicrobial activity against antibiotic-resistant Enterococcus faecalis ATCC 51299 assessed as inhibition of visible growth measured after 20 to 24 hrs incubation by CLSI method
Staphylococcus aureus [5] = assay: Antimicrobial activity against antibiotic-resistant Staphylococcus aureus ATCC 700699 assessed as inhibition of visible growth measured after 20 to 24 hrs incubation by CLSI method
[6] = test system: Staphylococcus epidermidis; assay: Antimicrobial activity against antibiotic-resistant Staphylococcus epidermidis ATCC 700296 assessed as inhibition of visible growth measured after 20 to 24 hrs incubation by CLSI method
Bacillus subtilis = assay: Antimicrobial activity against antibiotic-resistant Bacillus subtilis ATCC 6623 assessed as inhibition of visible growth measured after 20 to 24 hrs incubation by CLSI method
Staphylococcus aureus [7] = assay: Antimicrobial activity against antibiotic-resistant Staphylococcus aureus ATCC 33592 assessed as inhibition of visible growth measured after 20 to 24 hrs incubation by CLSI method
Staphylococcus aureus [8] = assay: Antimicrobial activity against Staphylococcus aureus ATCC 25923 assessed as inhibition of visible growth measured after 20 to 24 hrs incubation by CLSI method

SMILES | MIC (Staphylococcus aureus [1]) [µg/mL] | MIC (Staphylococcus aureus [2]) [µg/mL] | MIC (Enterococcus faecalis [3]) [µg/mL] | MIC (Enterococcus faecium) [µg/mL] | MIC (Enterococcus faecalis [4]) [µg/mL] | MIC (Staphylococcus aureus [5]) [µg/mL] | MIC [6] [µg/mL] | MIC (Bacillus subtilis) [µg/mL] | MIC (Staphylococcus aureus [7]) [µg/mL] | MIC (Staphylococcus aureus [8]) [µg/mL]
O=C(O)c1ccc(-n2cc(CNc3ccc(Br)cc3)c(-c3ccc(F)c(F)c3)n2)cc1 | > 32 | > 32 | > 32 | > 32 | > 32 | > 32 | > 32 | > 32 | > 32 | > 32
O=C(O)c1ccc(-n2cc(CNc3ccc(Oc4ccccc4)cc3)c(-c3ccc(F)c(F)c3)n2)cc1 | 1 (≈ 2.01 µM) | 1 (≈ 2.01 µM) | 4 (≈ 8.04 µM) | 2 (≈ 4.02 µM) | 4 (≈ 8.04 µM) | 2 (≈ 4.02 µM) | 2 (≈ 4.02 µM) | 1 (≈ 2.01 µM) | 2 (≈ 4.02 µM) | 1 (≈ 2.01 µM)
COc1ccc(NCc2cn(-c3ccc(C(=O)O)cc3)nc2-c2ccc(F)cc2)cc1C(F)(F)F | 16 (≈ 33 µM) | 8 (≈ 16.5 µM) | 32 (≈ 65.9 µM) | 32 (≈ 65.9 µM) | 32 (≈ 65.9 µM) | 8 (≈ 16.5 µM) | 16 (≈ 33 µM) | 8 (≈ 16.5 µM) | 16 (≈ 33 µM) | 16 (≈ 33 µM)
O=C(O)c1ccc(-n2cc(CNc3ccc(Cl)cc3)c(-c3ccc(F)c(F)c3)n2)cc1 | > 32 | > 32 | > 32 | > 32 | > 32 | > 32 | > 32 | 4 (≈ 9.09 µM) | > 32 | > 32
O=C(O)c1ccc(-n2cc(CNc3ccc(Br)c(C(F)(F)F)c3)c(-c3ccc(F)c(F)c3)n2)cc1 | 0.5 (≈ 0.905 µM) | 0.5 (≈ 0.905 µM) | 2 (≈ 3.62 µM) | 2 (≈ 3.62 µM) | 4 (≈ 7.24 µM) | 1 (≈ 1.81 µM) | 4 (≈ 7.24 µM) | 1 (≈ 1.81 µM) | 0.5 (≈ 0.905 µM) | 0.5 (≈ 0.905 µM)
O=C(O)c1ccc(-n2cc(CNc3ccc(F)cc3)c(-c3ccc(F)c(F)c3)n2)cc1 | > 32 | > 32 | > 32 | > 32 | > 32 | > 32 | > 32 | > 32 | > 32 | > 32
O=C(O)c1ccc(-n2cc(CNc3ccc(Cl)c(C(F)(F)F)c3)c(-c3ccc(F)c(F)c3)n2)cc1 | 1 (≈ 1.97 µM) | 0.5 (≈ 0.985 µM) | 4 (≈ 7.88 µM) | 2 (≈ 3.94 µM) | 4 (≈ 7.88 µM) | 2 (≈ 3.94 µM) | 4 (≈ 7.88 µM) | 0.5 (≈ 0.985 µM) | 2 (≈ 3.94 µM) | 1 (≈ 1.97 µM)
O=C(O)c1ccc(-n2cc(CNc3ccc(Cl)c(C(F)(F)F)c3)c(-c3ccc(F)cc3)n2)cc1 | 2 (≈ 4.08 µM) | 1 (≈ 2.04 µM) | 8 (≈ 16.3 µM) | 2 (≈ 4.08 µM) | 8 (≈ 16.3 µM) | 1 (≈ 2.04 µM) | 4 (≈ 8.17 µM) | 1 (≈ 2.04 µM) | 2 (≈ 4.08 µM) | 2 (≈ 4.08 µM)
O=C(O)c1ccc(-n2cc(CNc3cc(F)cc(C(F)(F)F)c3)c(-c3ccc(F)c(F)c3)n2)cc1 | 2 (≈ 4.07 µM) | 1 (≈ 2.04 µM) | 8 (≈ 16.3 µM) | 4 (≈ 8.14 µM) | 8 (≈ 16.3 µM) | 2 (≈ 4.07 µM) | 4 (≈ 8.14 µM) | 1 (≈ 2.04 µM) | 1 (≈ 2.04 µM) | 2 (≈ 4.07 µM)
O=C(O)c1ccc(-n2cc(CNc3ccc(Br)c(C(F)(F)F)c3)c(-c3ccc(F)cc3)n2)cc1 | 1 (≈ 1.87 µM) | 0.5 (≈ 0.936 µM) | 4 (≈ 7.49 µM) | 2 (≈ 3.74 µM) | 4 (≈ 7.49 µM) | 1 (≈ 1.87 µM) | 4 (≈ 7.49 µM) | 1 (≈ 1.87 µM) | 2 (≈ 3.74 µM) | 2 (≈ 3.74 µM)
O=C(O)c1ccc(-n2cc(CNc3ccc(Cl)c(Cl)c3)c(-c3ccc(F)c(F)c3)n2)cc1 | 1 (≈ 2.11 µM) | 0.5 (≈ 1.05 µM) | 4 (≈ 8.43 µM) | 2 (≈ 4.22 µM) | 8 (≈ 16.9 µM) | 2 (≈ 4.22 µM) | 2 (≈ 4.22 µM) | 0.5 (≈ 1.05 µM) | 1 (≈ 2.11 µM) | 1 (≈ 2.11 µM)
O=C(O)c1ccc(-n2cc(CNc3cc(F)c(F)c(F)c3)c(-c3ccc(F)cc3)n2)cc1 | > 32 | > 32 | > 32 | > 32 | > 32 | > 32 | > 32 | 4 (≈ 9.06 µM) | > 32 | 32 (≈ 72.5 µM)
NS(=O)(=O)c1ccc(NCc2cn(-c3ccc(C(=O)O)cc3)nc2-c2ccc(F)cc2)cc1 | > 32 | > 32 | > 32 | > 32 | > 32 | > 32 | 16 (≈ 34.3 µM) | > 32 | > 32 | > 32
O=C(O)c1ccc(-n2cc(CNc3cc(F)cc(C(F)(F)F)c3)c(-c3cccc(F)c3)n2)cc1 | 2 (≈ 4.22 µM) | 1 (≈ 2.11 µM) | 8 (≈ 16.9 µM) | 4 (≈ 8.45 µM) | 8 (≈ 16.9 µM) | 2 (≈ 4.22 µM) | 4 (≈ 8.45 µM) | 1 (≈ 2.11 µM) | 1 (≈ 2.11 µM) | 2 (≈ 4.22 µM)
O=C(O)c1ccc(-n2cc(CNc3cccc(Br)c3)c(-c3cccc(F)c3)n2)cc1 | 4 (≈ 8.58 µM) | 2 (≈ 4.29 µM) | 16 (≈ 34.3 µM) | 16 (≈ 34.3 µM) | 16 (≈ 34.3 µM) | 8 (≈ 17.2 µM) | 16 (≈ 34.3 µM) | 2 (≈ 4.29 µM) | 8 (≈ 17.2 µM) | 4 (≈ 8.58 µM)
O=C(O)c1ccc(-n2cc(CNc3cc(F)c(F)c(F)c3)c(-c3ccc(F)c(F)c3)n2)cc1 | 8 (≈ 17.4 µM) | 4 (≈ 8.71 µM) | > 32 | 8 (≈ 17.4 µM) | > 32 | 8 (≈ 17.4 µM) | 16 (≈ 34.8 µM) | 4 (≈ 8.71 µM) | 8 (≈ 17.4 µM) | 8 (≈ 17.4 µM)
O=C(O)c1ccc(-n2cc(CNc3ccc(F)c(Cl)c3)c(-c3ccc(F)cc3)n2)cc1 | 4 (≈ 9.09 µM) | 2 (≈ 4.55 µM) | > 32 | 16 (≈ 36.4 µM) | > 32 | 8 (≈ 18.2 µM) | 32 (≈ 72.8 µM) | 2 (≈ 4.55 µM) | 8 (≈ 18.2 µM) | 8 (≈ 18.2 µM)
O=C(O)c1ccc(-n2cc(CNc3cc(Cl)cc(Cl)c3)c(-c3cccc(F)c3)n2)cc1 | 1 (≈ 2.19 µM) | 1 (≈ 2.19 µM) | 8 (≈ 17.5 µM) | – | – | 4 (≈ 8.77 µM) | – | 1 (≈ 2.19 µM) | 1 (≈ 2.19 µM) | 2 (≈ 4.38 µM)
O=C(O)c1ccc(-n2cc(CNc3cc(F)cc(C(F)(F)F)c3)c(-c3ccc(F)cc3)n2)cc1 | 2 (≈ 4.22 µM) | 2 (≈ 4.22 µM) | 16 (≈ 33.8 µM) | 8 (≈ 16.9 µM) | 16 (≈ 33.8 µM) | 2 (≈ 4.22 µM) | 4 (≈ 8.45 µM) | 4 (≈ 8.45 µM) | 4 (≈ 8.45 µM) | 2 (≈ 4.22 µM)
O=C(O)c1ccc(-n2cc(CNc3ccc(Br)c(Cl)c3)c(-c3cccc(F)c3)n2)cc1 | 1 (≈ 2 µM) | 1 (≈ 2 µM) | 8 (≈ 16 µM) | 4 (≈ 7.99 µM) | 4 (≈ 7.99 µM) | 2 (≈ 3.99 µM) | 4 (≈ 7.99 µM) | 1 (≈ 2 µM) | 1 (≈ 2 µM) | –
O=C(O)c1ccc(-n2cc(CNc3ccc(Br)c(Cl)c3)c(-c3ccc(F)c(F)c3)n2)cc1 | 1 (≈ 1.93 µM) | 0.5 (≈ 0.964 µM) | 4 (≈ 7.71 µM) | 4 (≈ 7.71 µM) | 4 (≈ 7.71 µM) | 2 (≈ 3.86 µM) | 2 (≈ 3.86 µM) | 2 (≈ 3.86 µM) | 2 (≈ 3.86 µM) | 1 (≈ 1.93 µM)
O=C(O)c1ccc(-n2cc(CNc3cc(Cl)c(F)c(Cl)c3)c(-c3ccc(F)c(F)c3)n2)cc1 | 0.5 (≈ 1.02 µM) | 0.25 (≈ 0.508 µM) | 4 (≈ 8.13 µM) | 1 (≈ 2.03 µM) | 4 (≈ 8.13 µM) | 1 (≈ 2.03 µM) | 2 (≈ 4.06 µM) | 0.5 (≈ 1.02 µM) | 1 (≈ 2.03 µM) | 1 (≈ 2.03 µM)
